Usually pEC50 stands for the negative decadic logarithm of the EC50, by convention in mol/L. Low readings indicate a high EC50, high ones a low EC50.

pEC50: −log10 of the molar value.

The source of these data is patent publication US10626081B2, “Farnesoid X receptor agonists and uses thereof” (Metacrine, Inc., priority 2015, dated 2020).

Assay [1] addresses T1, FXR (Homo sapiens, UniProt Q96RI1).
T1 construct: expressed in transfected cells; host or cells: CV-1 cells
T1 sequence (Q96RI1 1-486): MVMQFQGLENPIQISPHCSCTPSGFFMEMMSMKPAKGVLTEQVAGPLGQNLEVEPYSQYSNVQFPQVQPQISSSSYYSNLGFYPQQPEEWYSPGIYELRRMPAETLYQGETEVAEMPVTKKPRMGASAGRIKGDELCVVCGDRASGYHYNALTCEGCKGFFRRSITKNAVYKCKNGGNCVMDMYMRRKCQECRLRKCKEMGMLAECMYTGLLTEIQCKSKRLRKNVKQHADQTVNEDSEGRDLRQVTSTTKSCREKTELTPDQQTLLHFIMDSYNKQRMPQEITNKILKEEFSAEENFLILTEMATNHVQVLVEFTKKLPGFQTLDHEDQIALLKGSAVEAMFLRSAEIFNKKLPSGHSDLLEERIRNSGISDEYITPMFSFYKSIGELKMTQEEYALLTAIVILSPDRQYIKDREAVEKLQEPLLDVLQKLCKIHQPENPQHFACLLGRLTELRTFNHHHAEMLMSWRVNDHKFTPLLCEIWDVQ
T1 sequence (P19793 1-462 partner): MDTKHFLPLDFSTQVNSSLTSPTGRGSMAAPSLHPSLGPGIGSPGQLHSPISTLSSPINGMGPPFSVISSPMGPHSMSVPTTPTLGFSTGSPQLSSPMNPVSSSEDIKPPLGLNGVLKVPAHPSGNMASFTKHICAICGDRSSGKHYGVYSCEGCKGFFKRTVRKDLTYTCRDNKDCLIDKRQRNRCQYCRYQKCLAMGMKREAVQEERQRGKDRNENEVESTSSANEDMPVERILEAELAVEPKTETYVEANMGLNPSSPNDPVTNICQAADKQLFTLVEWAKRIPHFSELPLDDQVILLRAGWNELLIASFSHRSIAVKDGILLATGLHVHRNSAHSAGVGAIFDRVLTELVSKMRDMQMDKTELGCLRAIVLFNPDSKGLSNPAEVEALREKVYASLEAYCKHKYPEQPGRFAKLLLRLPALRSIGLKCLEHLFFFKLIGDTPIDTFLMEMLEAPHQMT
As to the kind of experiment: In Vitro FXR Assay (PGL3): luciferase reporter in transfected CV-1 cells. It counts as cell-based. Conditions: CV-1 cells transfected with hFXR, hRXR, PGL3-ECRE*6-luc; 18 h incubation; luminescence. The method, then: Example B-1: In Vitro FXR Assay (PGL3)
CV-1 cells were seeded at a density of 2,000,000 cells in a T175 flask with DMEM+10% charcoal double-stripped FBS and incubated at 37° C. in a 5% CO2 for 18 h (O/N).
After 18 h of incubation, the medium in the T175 flask was changed with fresh DMEM+10% charcoal super-stripped serum.
To prepare the transfection reaction mixture, the transfection reagent (X-tremeGENE HP from Roche, Cat #06 366 236 001) was added in to a 1.5 mL microcentrifuge tube labelled “A” at a ratio of 1:3 (DNA in transfection reagent in μL). OptiMEM medium (Life Technologies, Cat #31985-062) was added accordingly to provide a total volume of 1 mL. The transfection reaction mixture was then briefly vortexed and incubated at room temperature for 5 minutes.
In a separate 1.5 mL microcentrifuge tube labelled “B”, 100 μL OptiMEM and plasmids XPD90Gal pCMXhFXRfl, pCMXhRXRfl+PGL3-ECRE*6-luc+CMX-YFP in the ratio 2 μg:2 μg:18 μg:3 μg were added. This microcentrifuge tube “B” was then briefly vortexed and incubated at room temperature for 5 minutes.
The total volume in tube labelled “A” was then transferred in to tube labelled “B.” The mixture was then briefly vortexed and the transfection:DNA complex was then incubated for about 15-20 minutes at room temperature.
Following incubation, the transfection reagent/DNA mixture complex was then added to cells in the T175 flask and the cells were incubated at […] (O/N) at 37° C. in 5% CO2.
In a 96 well plate, a half logarithmic serial dilution was prepared. OptiMEM was used as the diluent. Using any of one of the compounds described herein, a compound stock solution of 10 mM was prepared. An initial 1:100 dilution was made into the first well for a final concentration of 100 μM. The final concentrations in the 96-well plate was prepared by using a multichannel pipette to transfer 5 μL of the diluted compound to 384-well plate in quadruplicate.
Cells in T175 flask were trypsinized and cells were resuspended in 40 mL phenol red free DMEM+10% charcoal super-stripped FBS. Typically, one T175 flask was sufficient to seed two 384 well plates. CV-1 cells were seeded at 45 μL cell suspension/well using a multi-channel pipet or a 384 multidrop dispenser. The cells were then incubated for 18 hrs, overnight.
After removing the plates from the incubator, the medium was flicked out of plate and 384 well plate was turned upside down onto paper towel. The remaining medium was gently tapped out. 15 μL lysis buffer was then added to each well using a multichannel pipet or a 384 well multi-drop dispenser. After incubation for 10 minutes at room temperature on shaker, 30 μL Luciferase buffer was added to each well. Luminescence counts were taken immediately using the Perkin Elmer Envision.
The ability of the compounds disclosed herein to […] FXR activity was quantified and the respective EC50 value was determined. Fex=fexaramine.
(In general: A reporter such as luciferase makes a cellular process visible.)

Assay [2] concerns the target T1, FXR. Nature of the assay: In Vitro FXR Assay (TK): TK-ECRE-luc reporter in transfected CV-1 cells. The class given is cell-based. The note with it: CV-1 cells transfected with hFXR, hRXR, 18 h incubation, luminescence. The method in brief:
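CV-1 cells in charcoal-stripped FBS medium were transiently cotransfected with hFXR, hRXR, TK-ECRE-luc and pCMX-YFP plasmids. After 18 h, compounds serially diluted in DMSO were added for 18 h at 37 °C, 5% CO2, then cells were lysed and luminescence read.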

On to `COC(=O)C(C)Cc1cccc(N(Cc2ccc(-c3ccc(N(C)C)cc3)cc2)C(=O)C2CCCCC2)c1` (stereo not drawn) [compound 95, Methyl 3-(3-(N-((4′-(dimethylamino)-[1,1′-biphenyl]-4-yl)methyl)cyclohexanecarboxamido)phenyl)-2-methylpropanoate], for which the “Cmpd/Fex (ratio of the EC50 for the test compound relative to the EC50 of the Fexaramine control)” value in assay [1] is recorded as “++ (‘++’ means Cmpd/Fex > 10 & < 100)”. The compound further showed a negative-log EC50 (pEC50) in assay [2] of 5.00 to 6.00.
For `CCc1cc(/C=C/C(=O)OC)cc(N(Cc2ccc(-c3ccc(N(C)C)cc3)cc2)C(=O)C2CCCCC2)c1` [compound 85, (E)-Methyl 3-(3-(N-((4′-(dimethylamino)-[1,1′-biphenyl]-4-yl)methyl)cyclohexanecarboxamido)-5-ethylphenyl)acrylate], the “Cmpd/Fex (ratio of the EC50 for the test compound relative to the EC50 of the Fexaramine control)” value in assay [1] is given as “+++ (‘+++’ means Cmpd/Fex < 10)”. The negative logarithm of the EC50 (pEC50) in assay [2] is 5.00 to 6.00.
Taken in the same sequence, the figures for `COC(=O)/C=C/c1cccc(N(Cc2ccc(-c3ccc(OC)cc3F)cc2)C(=O)C2CCCCC2)c1` [compound 33, (E)-Methyl 3-(3-(N-((2′-fluoro-4′-methoxy-[1,1′-biphenyl]-4-yl)methyl)cyclohexanecarboxamido)phenyl)acrylate] were “++ (‘++’ means Cmpd/Fex > 10 & < 100)” and 5.00 to 6.00.
In the same order, the values of `COC(=O)/C=C/c1cccc(N(Cc2ccc(-c3ccccc3F)cc2)C(=O)C2CCCCC2)c1` [compound 27, (E)-Methyl 3-(3-(N-((2′-fluoro-[1,1′-biphenyl]-4-yl)methyl)cyclohexanecarboxamido)phenyl) acrylate] are “+++ (‘+++’ means Cmpd/Fex < 10)” and 5.00 to 6.00.
In the same order, the values of `COC(=O)/C=C/c1cccc(N(Cc2ccc(-c3ccc(N(C)C)cc3)cc2)C(=O)c2ccc(OC)cc2)c1` [compound 10, (E)-Methyl 3-(3-(N-((4′-(dimethylamino)-[1,1′-biphenyl]-4-yl)methyl)-4-methoxybenzamido)phenyl)acrylate] are “+++ (‘+++’ means Cmpd/Fex < 10)” and 5.00 to 6.00.
Consider `COC(=O)/C=C/c1cccc(N(Cc2ccc(-c3ccc(N(C)C(=O)OC(C)(C)C)cc3)cc2)C(=O)C2CCCCC2)c1` [compound 60, (E)-Methyl 3-(3-(N-((4′-((tert-butoxycarbonyl)(methyl)amino)-[1,1′-biphenyl]-4-yl)methyl)cyclohexanecarboxamido)phenyl) acrylate], for which the “Cmpd/Fex (ratio of the EC50 for the test compound relative to the EC50 of the Fexaramine control)” value in assay [1] is listed as “+ (‘+’ means Cmpd/Fex > 100)”. For the same compound, in assay [2], the pEC50 was below 5.00.
For the compound `COC(=O)/C=C/c1cccc(N(Cc2ccc(-c3ccc(N(C)C)cc3)cc2)C(=O)C2CCCCCC2)c1` [compound 11, (E)-Methyl 3-(3-(N-((4′-(dimethylamino)-[1,1′-biphenyl]-4-yl)methyl)cycloheptanecarboxamido)phenyl)acrylate], the “Cmpd/Fex (ratio of the EC50 for the test compound relative to the EC50 of the Fexaramine control)” value in assay [1] was “+++ (‘+++’ means Cmpd/Fex < 10)”. This compound also gave a pEC50 in assay [2] of at least 6.00.
Taken in the same sequence, the figures for `COC(=O)/C=C/c1cccc(N(Cc2ccc(-c3cccc(N(C)C)c3)cc2)C(=O)C2CCCCC2)c1` [compound 37, (E)-Methyl 3-(3-(N-((3′-(dimethylamino)-[1,1′-biphenyl]-4-yl)methyl)cyclohexanecarboxamido)phenyl) acrylate] were “++ (‘++’ means Cmpd/Fex > 10 & < 100)” and 5.00 to 6.00.
Turning to `COC(=O)/C=C/c1cccc(N(Cc2ccc(-c3cscn3)cc2)C(=O)C2CCCCC2)c1` [compound 68, (E)-Methyl 3-(3-(N-(4-(thiazol-4-yl)benzyl)cyclohexanecarboxamido)phenyl) acrylate], the “Cmpd/Fex (ratio of the EC50 for the test compound relative to the EC50 of the Fexaramine control)” value in assay [1] is on record as “+ (‘+’ means Cmpd/Fex > 100)”. For the same compound, the pEC50 in assay [2] is 5.00 to 6.00.
For `CCOC(=O)N(Cc1ccc(-c2ccc(N(C)C)cc2)cc1)c1cccc(/C=C/C(=O)OC)c1` [compound 3, (E)-Methyl 3-(3-(((4′-(dimethylamino)-[1,1′-biphenyl]-4-yl)methyl)(ethoxycarbonyl)amino)phenyl)acrylate], the “Cmpd/Fex (ratio of the EC50 for the test compound relative to the EC50 of the Fexaramine control)” value in assay [1] is “++ (‘++’ means Cmpd/Fex > 10 & < 100)”. In assay [2], this compound showed a pEC50 of 5.00 to 6.00.
Taken in the same sequence, the figures for `COC(=O)/C=C/c1cccc(N(Cc2ccc(-c3ccc(OC)c(C#N)c3)cc2)C(=O)C2CCCCC2)c1` [compound 64, (E)-Methyl 3-(3-(N-((3′-cyano-4′-methoxy-[1,1′-biphenyl]-4-yl)methyl)cyclohexanecarboxamido)phenyl) acrylate] were “+++ (‘+++’ means Cmpd/Fex < 10)” and at least 6.00.
Taken in the same sequence, the figures for `COC(=O)/C=C/c1cccc(N(Cc2ccc(-c3ccc(N(C)C)cc3)cc2)C(=O)C2CCCC2)c1` [compound 14, (E)-Methyl 3-(3-(N-((4′-(dimethylamino)-[1,1′-biphenyl]-4-yl)methyl)cyclopentanecarboxamido)phenyl)acrylate] were “+++ (‘+++’ means Cmpd/Fex < 10)” and at least 6.00.
Turning to `COC(=O)/C=C/c1cccc(N(Cc2ccccc2-c2ccccc2)C(=O)C2CCCCC2)c1` [compound 81, (E)-Methyl 3-(3-(N-([1,1′-biphenyl]-2-ylmethyl)cyclohexanecarboxamido)phenyl) acrylate], in assay [1], the “Cmpd/Fex (ratio of the EC50 for the test compound relative to the EC50 of the Fexaramine control)” value is on record as “+ (‘+’ means Cmpd/Fex > 100)”. For the same compound, the negative logarithm of the EC50 (pEC50) in assay [2] is below 5.00.
On to `COC(=O)/C=C/c1cccc(N(Cc2ccc(-c3c(C)noc3C)cc2)C(=O)C2CCCCC2)c1` [compound 31, (E)-Methyl 3-(3-(N-(4-(3,5-dimethylisoxazol-4-yl)benzyl)cyclohexanecarboxamido)phenyl)acrylate], for which the “Cmpd/Fex (ratio of the EC50 for the test compound relative to the EC50 of the Fexaramine control)” value in assay [1] is given as “+ (‘+’ means Cmpd/Fex > 100)”. This compound also gave a negative logarithm of the EC50 (pEC50) in assay [2] of 5.00 to 6.00.
For `COC(=O)/C=C/c1cccc(N(Cc2ccc(-c3ccc(N(C)C)cc3)cc2)C(=O)[C@H]2CC[C@@H](OC)CC2)c1` [compound 8, (E)-Methyl 3-(3-((1r,4r)-N-((4′-(dimethylamino)-[1,1′-biphenyl]-4-yl)methyl)-4-methoxycyclohexanecarboxamido)phenyl)acrylate], the “Cmpd/Fex (ratio of the EC50 for the test compound relative to the EC50 of the Fexaramine control)” value in assay [1] is reported as “+++ (‘+++’ means Cmpd/Fex < 10)”. Besides, in assay [2], the negative-log EC50 (pEC50) is at least 6.00.
